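GI50 is the concentration that inhibits growth by half. TGI: concentration producing complete growth inhibition.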
Legend:
Assay in all cases: DTP human tumour cell line panel, 384-well format
[1] = system: EKVX NSCLC
[2] = system: T-47D breast
[3] = system: SK-OV-3 ovarian
[4] = system: SF-268 CNS
[5] = system: OVCAR-3 ovarian
[6] = system: HS 578T breast
[7] = system: OVCAR-4 ovarian
[8] = system: HOP-92 NSCLC
[9] = system: HCT-15 colon
[10] = system: COLO 205 colon
[11] = system: UACC-62 melanoma
[12] = system: SR leukemia
[13] = system: SW-620 colon
[14] = system: K-562 leukemia
[15] = system: NCI-H322M lung
[16] = system: PC-3 prostate
[17] = system: MDA-MB-231 breast
[18] = system: SK-MEL-28 melanoma
[19] = system: SK-MEL-5 melanoma
[20] = system: ACHN renal
[21] = system: HOP-62 NSCLC
[22] = system: MDA-MB-435 melanoma
[23] = system: MCF7 breast
[24] = system: U251 glioblastoma
[25] = system: DU-145 prostate
[26] = system: 786-0 renal
[27] = system: SN12C renal
[28] = system: TK-10 renal
[29] = system: IGROV1 ovarian
[30] = system: A549 NSCLC
[31] = system: BT-549 breast
[32] = system: MOLT-4 leukemia
[33] = system: OVCAR-8 ovarian
[34] = system: NCI/ADR-RES ovarian
[35] = system: NCI-H460 NSCLC
[36] = system: OVCAR-5 ovarian
[37] = system: A498 renal
[38] = system: SNB-75 CNS
[39] = system: HT29 colon
[40] = system: LOX IMVI melanoma
[41] = system: HCC-2998 colon
[42] = system: SF-539 CNS
[43] = system: UACC-257 melanoma
[44] = system: CAKI-1 renal
[45] = system: RXF 393 renal
[46] = system: M14 melanoma
[47] = system: SF-295 CNS
[48] = system: RPMI-8226 leukemia
[49] = system: HL-60(TB) leukemia
[50] = system: CCRF-CEM leukemia
[51] = system: UO-31 renal
[52] = system: NCI-H226 lung
[53] = system: SNB-19 CNS
[54] = system: MDA-MB-468 breast
[55] = system: KM12 colon
[56] = system: NCI-H23 lung
[57] = system: MALME-3M melanoma
[58] = system: NCI-H522 lung

O=C(NOCC1CC1)c1ccc(F)c(F)c1Nc1ccc(I)cc1Cl
GI50 [1]: 1.72 µM | TGI [1]: 4.29 µM | GI50 [2]: 2.35 µM | TGI [2]: 7.06 µM | GI50 [3]: 3.16 µM | TGI [3]: 13.3 µM | GI50 [4]: 3.18 µM | TGI [4]: 14.7 µM | GI50 [5]: 1.64 µM | TGI [5]: 3.32 µM | GI50 [6]: 1.84 µM | TGI [6]: 6.16 µM | GI50 [7]: 1.49 µM | TGI [7]: 5.03 µM | GI50 [8]: 1.06 µM | TGI [8]: 2.41 µM | GI50 [9]: 2.29 µM | TGI [9]: 11.5 µM | GI50 [10]: 0.0566 µM | TGI [10]: 1.01 µM | GI50 [11]: 0.04 µM | TGI [11]: 0.259 µM | GI50 [12]: 1.65 µM | TGI [12]: 3.26 µM | GI50 [13]: 0.105 µM | TGI [13]: 1.87 µM | GI50 [14]: 1.75 µM | TGI [14]: 10.7 µM | GI50 [15]: 1.23 µM | TGI [15]: 6.8 µM | GI50 [16]: 3.5 µM | TGI [16]: 11.8 µM | GI50 [17]: 0.896 µM | TGI [17]: 2.96 µM | GI50 [18]: 0.0352 µM | TGI [18]: 0.208 µM | GI50 [19]: 0.104 µM | TGI [19]: 1.58 µM | GI50 [20]: 1.66 µM | TGI [20]: 15.4 µM | GI50 [21]: 0.868 µM | TGI [21]: 6.43 µM | GI50 [22]: 0.11 µM | TGI [22]: 6.03 µM | GI50 [23]: 2.9 µM | TGI [23]: 10.7 µM | GI50 [24]: 2.11 µM | TGI [24]: 8.04 µM | GI50 [25]: 3.49 µM | TGI [25]: 15.3 µM | GI50 [26]: 1.86 µM | TGI [26]: 9.93 µM | GI50 [27]: 1.04 µM | TGI [27]: 4.43 µM | GI50 [28]: 1.91 µM | TGI [28]: 5.84 µM | GI50 [29]: 1.08 µM | TGI [29]: 2.81 µM | GI50 [30]: 1.03 µM | TGI [30]: 3.84 µM | GI50 [31]: 2.73 µM | TGI [31]: 14.8 µM | GI50 [32]: 1.65 µM | TGI [32]: 3.02 µM | GI50 [33]: 1.92 µM | TGI [33]: 4.82 µM | GI50 [34]: 1.74 µM | TGI [34]: 3.69 µM | GI50 [35]: 1.38 µM | TGI [35]: 11.4 µM | GI50 [36]: 0.304 µM | TGI [36]: 2.65 µM | GI50 [37]: 1.69 µM | TGI [37]: 12.2 µM | GI50 [38]: 1.88 µM | TGI [38]: 9.45 µM | GI50 [39]: 0.279 µM | TGI [39]: 10.3 µM | GI50 [40]: 0.337 µM | TGI [40]: 1.69 µM | GI50 [41]: 0.0847 µM | TGI [41]: 0.54 µM | GI50 [42]: 1.62 µM | TGI [42]: 3.61 µM | GI50 [43]: 0.046 µM | TGI [43]: 0.234 µM | GI50 [44]: 1.03 µM | TGI [44]: 3.07 µM | GI50 [45]: 2.11 µM | TGI [45]: 11.6 µM | GI50 [46]: 0.0349 µM | TGI [46]: 0.176 µM | GI50 [47]: 2.25 µM | TGI [47]: 6.09 µM | GI50 [48]: 0.277 µM | TGI [48]: 1.78 µM | GI50 [49]: 0.0375 µM | TGI [49]: 0.808 µM | GI50 [50]: 1.8 µM | TGI [50]: 3.37 µM | GI50 [51]: 2.34 µM | TGI [51]: > 100 µM | GI50 [52]: 1.18 µM | TGI [52]: 4.32 µM | GI50 [53]: 1.34 µM | TGI [53]: 5.8 µM | GI50 [54]: 1.85 µM | TGI [54]: 3.55 µM | GI50 [55]: 0.414 µM | TGI [55]: 3.93 µM | GI50 [56]: 0.246 µM | TGI [56]: 1.91 µM | GI50 [57]: 0.017 µM | TGI [57]: 0.0448 µM | GI50 [58]: 1.82 µM | TGI [58]: 4.09 µM

Reference: PubChem BioAssay (NCI)
